# Patent US6479435B1, “Diaryl ethers and processes for their preparation and herbicidal and desiccant compositions containing them” (ISK Americas Incorporated, priority 1997, dated 2002)
# Tests used:
# Type in all cases: in vivo
# [1] = tested on: soybean (Glycine max L., var. Pella 86, SOY); assay: Pre-emerge greenhouse test, crop damage rating; settings: 14 days after application, rating scale 0-100
# Procedure, shortened: (§1)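 Seeds sown in sandy loam mix one day before track-sprayer application of compounds in acetone at 125–1000 g ai/ha (187 l/ha), then surface-watered to incorporate and bottom-watered. Visual rating 14 days after application on a 0–100 scale (0 = no damage, 100 = all plants dead).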
# [2] = tested on: field corn (Zea mays L., var. Dekalb 535, CORN); assay: Pre-emerge greenhouse test, crop damage rating; settings: 14 days after application, rating scale 0-100
# Procedure, shortened: as §1
# [3] = tested on: upland rice (Oryza sp., var.Tebonnet, RICE); assay: Pre-emerge greenhouse test, crop damage rating; settings: 14 days after application, rating scale 0-100
# Procedure, shortened: as §1
# [4] = tested on: sicklepod (Cassia obtusifolia, CASOB); assay: Post-emerge greenhouse herbicide test, phytotoxicity rating; settings: 14 days after application
# Procedure, shortened: (§2)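 Compounds in acetone with 0.25% v/v non-ionic surfactant were track-sprayed at 187 l/ha over plants at the 2-3 leaf stage, at 63 to 1000 g ai/ha. Pots were bottom-watered. Injury was scored visually 14 days later on a 0-100 scale, where 0 is no damage and 100 is complete plant death.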
# [5] = tested on: large crabgrass (Digitaria sanguinalis, DIGSA); assay: as above; settings: 14 days after application
# Procedure, shortened: as §2
# [6] = tested on: Johnsongrass (Sorghum halepense, SORHA); assay: as above; settings: 14 days after application
# Procedure, shortened: as §2
# [7] = tested on: barnyardgrass (Echinochloa crusgalli, ECHCG); assay: as above; settings: 14 days after application
# Procedure, shortened: as §2
# [8] = tested on: ivyleaf morningglory (Ipomoea hederacea, IPOHE); assay: as above; settings: 14 days after application
# Procedure, shortened: as §2
# [9] = tested on: redroot pigweed (Amaranthus retroflexus, AMARE); assay: as above; settings: 14 days after application
# Procedure, shortened: as §2
# [10] = tested on: velvetleaf (Abutilon theophrasti, ABUTH); assay: as above; settings: 14 days after application
# Procedure, shortened: as §2
# [11] = tested on: lambsquarters (Chenopodium album, CHEAL); assay: as above; settings: 14 days after application
# Procedure, shortened: as §2
# [12] = tested on: green foxtail (Setaria viridis, SETVI); assay: as above; settings: 14 days after application
# Procedure, shortened: as §2
# [13] = tested on: sicklepod (Cassia obtusifolia, CASOB); assay: Pre-emerge greenhouse herbicide test, phytotoxicity rating; settings: 14 days after application, rating scale 0-100
# Procedure, shortened: as §1
# [14] = tested on: large crabgrass (Digitaria sanguinalis, DIGSA); assay: as above; settings: 14 days after application, rating scale 0-100
# Procedure, shortened: as §1
# [15] = tested on: Johnsongrass (Sorghum halepense, SORHA); assay: as above; settings: 14 days after application, rating scale 0-100
# Procedure, shortened: as §1
# [16] = tested on: barnyardgrass (Echinochloa crusgalli, ECHCG); assay: as above; settings: 14 days after application, rating scale 0-100
# Procedure, shortened: as §1
# [17] = tested on: ivyleaf morningglory (Ipomoea hederacea, IPOHE); assay: as above; settings: 14 days after application, rating scale 0-100
# Procedure, shortened: as §1
# [18] = tested on: redroot pigweed (Amaranthus retroflexus, AMARE); assay: as above; settings: 14 days after application, rating scale 0-100
# Procedure, shortened: as §1
# [19] = tested on: common ragweed (Ambrosia artemisiifolia L., AMBEL); assay: as above; settings: 14 days after application, rating scale 0-100
# Procedure, shortened: as §1
# [20] = tested on: velvetleaf (Abutilon theophrasti, ABUTH); assay: as above; settings: 14 days after application, rating scale 0-100
# Procedure, shortened: as §1
# [21] = tested on: lambsquarters (Chenopodium album, CHEAL); assay: as above; settings: 14 days after application, rating scale 0-100
# Procedure, shortened: as §1
# [22] = tested on: green foxtail (Setaria viridis, SETVI); assay: as above; settings: 14 days after application, rating scale 0-100
# Procedure, shortened: as §1
# [23] = tested on: common ragweed (Ambrosia artemisiifolia L., AMBEL); assay: Post-emerge greenhouse herbicide test, phytotoxicity rating; settings: 14 days after application
# Procedure, shortened: as §2
# [24] = tested on: field corn (Zea mays L., var. Dekalb 535, CORN); assay: Post-emerge greenhouse test, crop damage rating; settings: 14 days after application
# Procedure, shortened: as §2
# [25] = tested on: upland rice (Oryza sp., var.Tebonnet, RICE); assay: Post-emerge greenhouse test, crop damage rating; settings: 14 days after application
# Procedure, shortened: as §2
# [26] = tested on: soybean (Glycine max L., var. Pella 86, SOY); assay: Post-emerge greenhouse test, crop damage rating; settings: 14 days after application
# Procedure, shortened: as §2
smiles,measurement,setting,value
CCN1CC(=O)N(c2cc(Oc3ncccn3)c(Cl)cc2F)C1=O [Compound 8-2],crop damage rating SOY,[1]; 125 g ai/ha,0
same,crop damage rating SOY,[1]; 500 g ai/ha,20
same,crop damage rating CORN,[2]; 125 g ai/ha,0
same,crop damage rating CORN,[2]; 500 g ai/ha,50
same,crop damage rating RICE,[3]; 125 g ai/ha,40
same,crop damage rating RICE,[3]; 500 g ai/ha,90
same,CASOB phytotoxicity rating (0-100),[4]; 63 g al/ha,20
same,CASOB phytotoxicity rating (0-100),[4]; 500 g al/ha,50
same,DIGSA phytotoxicity rating (0-100),[5]; 63 g al/ha,0
same,DIGSA phytotoxicity rating (0-100),[5]; 500 g al/ha,20
same,SORHA phytotoxicity rating (0-100),[6]; 63 g al/ha,0
same,SORHA phytotoxicity rating (0-100),[6]; 500 g al/ha,20
same,ECHCG phytotoxicity rating (0-100),[7]; 63 g al/ha,10
same,ECHCG phytotoxicity rating (0-100),[7]; 500 g al/ha,50
same,IPOHE phytotoxicity rating (0-100),[8]; 63 g al/ha,70
same,IPOHE phytotoxicity rating (0-100),[8]; 500 g al/ha,100
same,AMARE phytotoxicity rating (0-100),[9]; 63 g al/ha,60
same,AMARE phytotoxicity rating (0-100),[9]; 500 g al/ha,100
same,ABUTH phytotoxicity rating (0-100),[10]; 63 g al/ha,60
same,ABUTH phytotoxicity rating (0-100),[10]; 500 g al/ha,100
same,CHEAL phytotoxicity rating (0-100),[11]; 63 g al/ha,80
same,CHEAL phytotoxicity rating (0-100),[11]; 500 g al/ha,100
same,SETVI phytotoxicity rating (0-100),[12]; 63 g al/ha,10
same,SETVI phytotoxicity rating (0-100),[12]; 500 g al/ha,30
same,phytotoxicity rating CASOB,[13]; 125 g ai/ha,0
same,phytotoxicity rating CASOB,[13]; 500 g ai/ha,80
same,phytotoxicity rating DIGSA,[14]; 125 g ai/ha,90
same,phytotoxicity rating DIGSA,[14]; 500 g ai/ha,100
same,phytotoxicity rating SORHA,[15]; 125 g ai/ha,20
same,phytotoxicity rating SORHA,[15]; 500 g ai/ha,100
same,phytotoxicity rating ECHCG,[16]; 125 g ai/ha,10
same,phytotoxicity rating ECHCG,[16]; 500 g ai/ha,100
same,phytotoxicity rating IPOHE,[17]; 125 g ai/ha,100
same,phytotoxicity rating IPOHE,[17]; 500 g ai/ha,100
same,phytotoxicity rating AMARE,[18]; 125 g ai/ha,100
same,phytotoxicity rating AMARE,[18]; 500 g ai/ha,100
same,phytotoxicity rating AMBEL,[19]; 125 g ai/ha,95
same,phytotoxicity rating AMBEL,[19]; 500 g ai/ha,100
same,phytotoxicity rating ABUTH,[20]; 125 g ai/ha,100
same,phytotoxicity rating ABUTH,[20]; 500 g ai/ha,100
same,phytotoxicity rating CHEAL,[21]; 125 g ai/ha,100
same,phytotoxicity rating CHEAL,[21]; 500 g ai/ha,100
same,phytotoxicity rating SETVI,[22]; 125 g ai/ha,95
same,phytotoxicity rating SETVI,[22]; 500 g ai/ha,100
same,AMBEL phytotoxicity rating (0-100),[23]; 63 g al/ha,30
same,AMBEL phytotoxicity rating (0-100),[23]; 500 g al/ha,95
same,CORN crop damage rating (0-100),[24]; 63 g al/ha,5
same,CORN crop damage rating (0-100),[24]; 500 g al/ha,15
same,RICE crop damage rating (0-100),[25]; 63 g al/ha,0
same,RICE crop damage rating (0-100),[25]; 500 g al/ha,70
same,SOY crop damage rating (0-100),[26]; 63 g al/ha,10
same,SOY crop damage rating (0-100),[26]; 500 g al/ha,90
